This is an account of results in paper PMC3951440, “Assessing Specific Oligonucleotides and Small Molecule Antibiotics for the Ability to Inhibit the CRD-BP-CD44 RNA Interaction” (PLoS ONE, 2014).

Like-named read-outs stand apart in the source and are kept apart here.

Data set [1] has as its system HeLa cells. Put plainly: Tolerance of HeLa cells to antibiotics by light microscopy. It is filed as cell-based, human. The following applies: up to 1000 μM, unpublished observation.
The target in data set [2] is T1, CRD-BP-CD44 RNA interaction (Mus musculus, UniProt O88477).
T1 construct: The plasmid pET28b(+)-CRD-BP which contains the entire coding region of mouse CRD-BP cDNA; FLAG (N); 6xHis (C); made in house; host or cells: Escherichia coli BL21(DE3)
T1 sequence (O88477 whole entry): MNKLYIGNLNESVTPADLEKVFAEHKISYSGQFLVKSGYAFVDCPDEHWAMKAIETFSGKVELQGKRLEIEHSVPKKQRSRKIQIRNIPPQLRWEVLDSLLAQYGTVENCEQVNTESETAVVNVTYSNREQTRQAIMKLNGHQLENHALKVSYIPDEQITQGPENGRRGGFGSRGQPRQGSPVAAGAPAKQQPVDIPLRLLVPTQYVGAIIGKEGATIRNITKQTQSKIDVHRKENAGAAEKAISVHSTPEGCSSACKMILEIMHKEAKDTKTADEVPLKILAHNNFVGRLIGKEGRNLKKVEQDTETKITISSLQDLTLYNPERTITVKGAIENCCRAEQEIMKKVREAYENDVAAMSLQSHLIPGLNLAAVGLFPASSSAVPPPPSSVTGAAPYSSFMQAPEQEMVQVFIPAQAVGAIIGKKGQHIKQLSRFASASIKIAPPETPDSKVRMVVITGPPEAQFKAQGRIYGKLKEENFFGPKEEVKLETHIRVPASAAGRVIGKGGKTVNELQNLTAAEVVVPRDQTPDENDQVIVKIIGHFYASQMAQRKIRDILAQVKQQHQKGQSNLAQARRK
The data set can be described thus: EMSA competition and inhibition assay. The settings on record: for inhibition of the CRD-BP-CD44 RNA interaction in vitro (in words): [32P] CD44 Fragment 4. It is filed as binding. Here is the method:
The electrophoretic mobility shift assay (EMSA) binding buffer (5 mM Tris-Cl pH 7.4, 2.5 mM EDTA pH 8.0, 2 mM DTT, 5% glycerol, 0.1 mg/ml bovine serum albumin, 0.5 mg/mL yeast tRNA, 5 units RNasin) was prepared on ice prior to each experiment. In order to facilitate RNA denaturation and renaturation, the [^32P] RNA sample was heated to 50°C for 5 minutes and cooled to room temperature before adding the EMSA binding buffer and the appropriate amount of purified recombinant CRD-BP to a final volume of 20-μL. Reactions were incubated at 30°C for 10 minutes and transferred to ice for 5 minutes. The reaction was again incubated at 30°C for 10 minutes and transferred to ice for an additional 5 min. A total of 2 μL EMSA loading dye (250 mM Tris-Cl pH 7.4, 0.2% bromophenol blue, 0.2% xylene cyanol, 40% sucrose) was added to each reaction and 15 μL of the EMSA reaction was loaded onto an 8% native polyacrylamide gel and resolved at 25 mA for 90 minutes. Following electrophoresis, the gel was exposed overnight at –80°C and subjected to autoradiography using the Cyclone PhosphorImager and Optiquant Software.
EMSA competition and inhibition assays involved the pre-incubation between competitor molecules (oligonucleotides, aminoglycosides or RNA) and CRD-BP for 10 minutes at 30°C. Following the pre-incubation, 40 nM radiolabeled probe was added to the reaction. This was followed by the standard EMSA protocol as described above. The molar excess concentrations of oligonucleotides over the radiolabeled RNA probe are shown in each figure.
A general note: Mobility shift assays separate free from complexed probe on a gel.

Data set [3] deals with FLAG-CRD-BP. The data set can be described thus: Western blot of FLAG-CRD-BP in antibiotic-treated HeLa cells. The settings on record: 750 μM; for expression of FLAG-CRD-BP in total cell lysates: compared to untreated cells; for level of immuno-precipitated FLAG-CRD-BP: compared with non-treated cells. The data set is classed as cell-based, human. The procedure: HeLa cells transfected with pcDNA-FLAG or pcDNA-FLAG-CRD-BP in a 100 mm dish were lysed with 1 mL Total Cell Lysis (TCL) buffer (50 mM Tris-Cl pH 7.4, 150 mM NaCl, 1 mM EDTA, 0.1% Triton X-100) supplemented with 1 mM vanadyl ribonucleoside, 0.5 mM DTT, 0.05 units RNasin, and protease inhibitor tablet (Roche Diagnostics, Laval, Quebec). After 5 minutes on ice, lysed cells were aspirated using a 26 gauge needle five times to break the nuclei. After a 30-minute incubation on ice, the cell lysate was spun down at 14,000 rpm for 10 minutes. The collected supernatant was subjected to pre-clearing by incubating with 50 μL equilibrated-protein-G agarose beads (50% slurry) at 4°C for at least 1 hour. The resin was spun down at 3000xg for 1 minute and the lysate was collected. The pre-clearing step was repeated once after which the pre-cleared lysate was added to 5 μL anti-FLAG antibody (#F1804, Sigma-Aldrich, Oakville, Ontario) and mixed overnight at 4°C. Protein G-agarose beads were then added to the antibody-lysate mixture and mixed for 4 hours at 4°C to capture the anti-FLAG antibody. The agarose beads were then washed four times with TCL buffer followed by five washes with TCL buffer containing 1 M urea. Following the 4th wash with TCL buffer containing urea, 50% of the agarose beads were collected and spun down at 3000xg for 1 minute followed by resuspension in 16 μL of ddH2O for Western blot analysis. The remaining 50% of the agarose beads were subjected to a final wash followed by resuspension in 100 μL TCL buffer containing 0.3 mg/mL proteinase K and 0.1% SDS and incubated at 50°C for 30 minutes. Following incubation, RNAs physically associated with the resin were extracted by the phenol-chloroform-isoamyl alcohol method and quantified using a Nanodrop Spectrometer (Wilmington, Delaware). One μg of RNA from each sample group was treated with DNase (DNA-free kit, Ambion) before cDNA synthesis and qPCR as described above.
Protein samples were separated in a 12.5% polyacrylamide/SDS Lammeli gel system, transferred to a nitrocellulose membrane, and incubated against anti-FLAG (#200472-21, Stratagene, La Jolla, California), IMP1 polyclonal antibody (MBL, Nagoya, Japan), and β–actin (#A5441, Sigma-Aldrich) antibody. PageRuler Plus Prestained Protein Ladder (Thermo Fisher Scientific, Rockford, Illinois) was used to approximate the molecular weight of FLAG-CRD-BP, endogenous CRD-BP, and β–actin bands.
(In general: A western blot detects proteins with antibodies after separation by electrophoresis.)

The term IC50 denotes the point on the concentration scale where inhibition reaches its midpoint. High values mean weaker potency in that assay, low ones greater potency in that assay. On to `CCC[C@@H]1C[C@@H](C(=O)N[C@@H]([C@H]2O[C@H](SC)[C@H](O)[C@@H](O)[C@H]2O)[C@@H](C)O)N(C)C1` [Lincomycin], for which the “morphological abnormalities of HeLa cells” value in data set [1] was “did not see any obvious morphological abnormalities”. Moreover, the IC50 in data set [2] is > 1000 µM. In data set [2] (EMSA), the “inhibition of the CRD-BP-CD44 RNA interaction in vitro (in words)” value is recorded as “no inhibitory effect”. For the same compound, in data set [3], the “expression of FLAG-CRD-BP in total cell lysates” value was “significantly decreased” and the “level of immuno-precipitated FLAG-CRD-BP” value is listed as “significantly reduced”.

As to Neomycin, the “morphological abnormalities of HeLa cells” value in data set [1] was “did not see any obvious morphological abnormalities”. Besides, the “inhibition of the CRD-BP-CD44 RNA interaction in vitro (in words)” value in data set [2] (EMSA) is “effectively inhibited”. Moreover, in data set [2] (EMSA, CD44 RNA Fragment 4, concentration range 0 to 1000 μM), the IC50 was found to be 3.44 µM. For the same compound, the IC50 in data set [2] (EMSA, CD44 RNA Fragment 4, concentration range 0 to 1000 μM, listed as neomycin) was 3.4 µM. In data set [3], the “expression of FLAG-CRD-BP in total cell lysates” value is listed as “significantly decreased” and the “level of immuno-precipitated FLAG-CRD-BP” value is recorded as “significantly reduced”.
